Assay results published in ChEMBL document CHEMBL5308504, “Tm Shift (DSF) assay results for EUbOPEN Chemogenomics Library” (2023).
Values joined by “and” are separate entries in the source; they are usually repeats but may differ in a detail not shown here. Equal values may be shown once.

Experiments:
[1] = target: T1, Peregrin (Homo sapiens) (UniProt P55201); conditions: Compound concentration 20.0 uM, Protein concentration 2.0 uM, Result type QC Liability
T1 sequence (whole entry): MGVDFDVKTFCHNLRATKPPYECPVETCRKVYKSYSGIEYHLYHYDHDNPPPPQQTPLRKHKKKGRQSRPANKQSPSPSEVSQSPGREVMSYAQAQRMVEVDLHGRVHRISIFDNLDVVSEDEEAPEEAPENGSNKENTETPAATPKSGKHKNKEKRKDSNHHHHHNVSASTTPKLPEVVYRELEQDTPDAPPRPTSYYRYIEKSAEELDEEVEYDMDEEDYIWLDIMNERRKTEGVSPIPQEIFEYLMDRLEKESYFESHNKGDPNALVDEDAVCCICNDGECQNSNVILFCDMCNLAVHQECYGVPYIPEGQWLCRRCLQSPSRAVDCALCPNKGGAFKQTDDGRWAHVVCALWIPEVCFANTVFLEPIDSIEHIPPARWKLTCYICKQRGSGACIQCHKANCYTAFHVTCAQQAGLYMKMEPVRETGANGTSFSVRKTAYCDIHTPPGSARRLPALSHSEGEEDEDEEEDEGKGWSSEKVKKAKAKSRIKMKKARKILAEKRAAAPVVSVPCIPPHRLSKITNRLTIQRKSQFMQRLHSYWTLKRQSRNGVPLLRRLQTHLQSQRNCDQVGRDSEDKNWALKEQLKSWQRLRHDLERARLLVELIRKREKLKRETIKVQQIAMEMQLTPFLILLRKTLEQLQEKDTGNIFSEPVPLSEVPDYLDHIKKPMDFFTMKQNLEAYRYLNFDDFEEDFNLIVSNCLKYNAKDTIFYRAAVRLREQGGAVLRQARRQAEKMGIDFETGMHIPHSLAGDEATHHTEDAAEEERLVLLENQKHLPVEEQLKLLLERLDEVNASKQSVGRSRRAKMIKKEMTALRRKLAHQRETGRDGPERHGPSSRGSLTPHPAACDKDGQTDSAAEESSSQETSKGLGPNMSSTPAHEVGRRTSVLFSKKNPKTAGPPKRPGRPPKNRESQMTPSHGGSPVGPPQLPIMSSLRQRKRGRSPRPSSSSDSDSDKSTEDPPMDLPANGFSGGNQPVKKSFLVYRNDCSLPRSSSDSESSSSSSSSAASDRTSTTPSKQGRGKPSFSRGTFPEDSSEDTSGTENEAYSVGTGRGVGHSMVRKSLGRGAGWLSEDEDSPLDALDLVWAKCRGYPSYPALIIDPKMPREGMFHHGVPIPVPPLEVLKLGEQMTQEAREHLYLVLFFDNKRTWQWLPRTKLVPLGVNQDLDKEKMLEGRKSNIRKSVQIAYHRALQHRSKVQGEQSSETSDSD

[2] = target: Fibroblast growth factor receptor 3 (Homo sapiens) (UniProt P22607); conditions: Compound concentration 20.0 uM, Protein concentration 2.0 uM, Result type QC Liability
Fibroblast growth factor receptor 3 (Homo sapiens), sequence (P22607 23-806 limits assumed): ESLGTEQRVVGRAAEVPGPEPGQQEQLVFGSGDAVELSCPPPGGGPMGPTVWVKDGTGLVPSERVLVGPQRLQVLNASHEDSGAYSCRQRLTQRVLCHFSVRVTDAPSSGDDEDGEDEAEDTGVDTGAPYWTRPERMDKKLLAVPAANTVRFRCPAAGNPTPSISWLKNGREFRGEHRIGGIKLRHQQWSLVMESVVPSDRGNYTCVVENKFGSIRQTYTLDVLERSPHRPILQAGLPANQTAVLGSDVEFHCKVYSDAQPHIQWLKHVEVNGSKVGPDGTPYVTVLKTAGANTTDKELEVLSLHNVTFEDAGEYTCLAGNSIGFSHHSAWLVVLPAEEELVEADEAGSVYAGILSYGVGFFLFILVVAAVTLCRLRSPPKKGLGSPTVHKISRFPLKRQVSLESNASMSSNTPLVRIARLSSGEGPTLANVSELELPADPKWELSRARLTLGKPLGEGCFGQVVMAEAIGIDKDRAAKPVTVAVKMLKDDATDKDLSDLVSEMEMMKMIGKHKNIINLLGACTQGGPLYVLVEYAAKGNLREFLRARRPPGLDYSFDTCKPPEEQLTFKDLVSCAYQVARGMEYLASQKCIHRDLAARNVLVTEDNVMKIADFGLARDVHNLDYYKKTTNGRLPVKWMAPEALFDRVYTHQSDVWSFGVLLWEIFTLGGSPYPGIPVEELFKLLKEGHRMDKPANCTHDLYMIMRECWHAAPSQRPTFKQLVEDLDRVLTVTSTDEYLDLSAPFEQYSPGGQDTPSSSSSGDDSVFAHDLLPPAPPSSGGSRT
Description: Thermal Shift Assay. Domain: start/stop: P449-E759

| Structure (SMILES) | ΔTm [1] | ΔTm [2] |
| --- | --- | --- |
| CCc1ccccc1C(=O)Nc1n[nH]c2c(C)c(F)c(C3C(C#N)=C(C)N(C)C(C)=C3C#N)cc12 | -1.74 °C | 2.59 °C |
| FC(F)c1cncc(-c2ccc3ncc4nnc(C5=CCCOCC5)n4c3c2)c1 | -2.16 °C | 0.51 °C |
| O=C(Nc1cccc(C(F)(F)F)c1)c1cccc(-n2cc(-c3ccco3)nn2)c1 | -8.11 °C | -0.75 °C |
| Nc1c(CC(=O)O)cccc1C(=O)c1ccc(Br)cc1 | -2.36 °C | 0.57 °C |
| COc1cc2ncnc(Nc3ccc4c(cnn4Cc4ccccc4)c3)c2cc1OC | -1.65 °C | 1.75 °C |
| C=CC(=O)Nc1cc(-c2nn(C3CCC(N4CCN(C(C)=O)CC4)CC3)c3ncnc(N)c23)ccc1Oc1ccccc1 (stereo not given) | -1.27 °C | 1.74 °C |
| CCOc1ccc(S(=O)(=O)Nc2ccc(Cl)cc2C#Cc2cnc(C(=O)O)cc2OC)c2ncccc12 | -1.33 °C | -5.78 °C |
| Cc1csc(-c2nnc(Nc3ccc(Oc4ncccc4-c4ccnc(N)n4)cc3)c3ccccc23)c1 | -5.77 °C | -1.73 °C |
| CC(C)c1cnn2c(NCc3ccccc3)cc(NCCCCCCN)nc12 | -0.13 °C | 0.86 °C |
| O=C(O)CCCCN(CCc1ccccc1OCc1ccc(CCc2ccccc2)cc1)Cc1ccc(C(=O)O)cc1 | -2.23 °C | 0.8 °C |
| Cc1c(-c2c(F)cc(C(N)=O)c3[nH]c4c(c23)CC[C@H](C(C)(C)O)C4)cccc1-n1c(=O)c2cccc(F)c2n(C)c1=O | -3.49 °C | -3.27 °C |
| COc1cc(C(=O)NCCOCCOCCOCCC(=O)Nc2cccc3c2C(=O)N(C2CCC(=O)NC2=O)C3=O)ccc1Nc1ncc(C(F)(F)F)c(Oc2cccc3c2C(=O)CC3)n1 (stereo not given) | -2.32 °C | -3.01 °C |
| CN(C)C(=O)c1cc2cnc(Nc3ccc(N4CCN(CCCCNC(=O)COc5cccc6c5C(=O)N(C5CCC(=O)NC5=O)C6=O)CC4)cn3)nc2n1C1CCCC1 (stereo not given) | -1.94 °C | 0.68 °C |
| Cc1nc2ccc(Oc3ccc(F)cc3)cc2c(=O)n1C[C@H]1CCCN(C(C)C)C1 | -2.47 °C | 0.96 °C |
| O=C(O)CCn1c2c(c3ccccc31)C[C@H](NS(=O)(=O)c1ccc(F)cc1)CC2 | -1.45 °C | 0.49 °C |
| O=C(Nc1ccc(Cl)c(-c2ccccn2)c1)c1cccc(COc2ccc(Br)cc2CNCCO)c1 | -0.98 °C | 0.69 °C |

| Structure (SMILES) | ΔTm [1] | ΔTm [2] |
| --- | --- | --- |
| Cn1cc(-c2ccc(-c3cncc(Cl)c3N3CCC4(CCNC4=O)CC3)cc2)cn1 | -1.65 °C | 0.5 °C |
| CCc1ncnc(N2CCN(C(C)=O)CC2)c1C#Cc1ccc(N)nc1 | -1.29 °C | 0.7 °C |
| CCOC(=O)N1CCC(CN(Cc2ccc(Cl)cc2)Cc2ccc([N+](=O)[O-])s2)C1 (stereo not given) | -2.07 °C | 0.35 °C |
| CCCCOc1c(C(=O)c2c(F)cc(C)cc2F)c[nH]c2nncc1-2 | -1.13 °C | 0.71 °C |
| CN(CCCCCCC1=C(c2cc(F)cc(F)c2)CCCc2cc(O)ccc21)CCCCS(=O)(=O)CCCC(F)(F)F | -1.47 °C | 0.68 °C |
| CCn1c(CNC(=O)c2nc(Cl)cnc2N)[n+](CC)c2ccc(C(=O)N(C)CCN(C)C)cc21 | -1.87 °C | 0.5 °C |
| Cc1ccc(NS(=O)(=O)c2ccc3c(c2)C2C=CCC2C(c2ccc(C(=O)O)cc2)N3)cc1C (stereo not given) | -0.5 °C | 0.11 °C |
| Cn1c(Nc2c(Cl)cccc2Cl)nc2ccc3nc[nH]c(=O)c3c21 | -0.59 °C | 1.31 °C |
| Oc1c(-c2cccnc2)cnn1-c1ccccn1 | -1.78 °C | 0.56 °C |
| Cc1cnc(-c2cnc(NCCNc3ccc(C#N)cn3)nc2-c2ccc(Cl)cc2Cl)[nH]1 | -2.19 °C | 1.41 °C |
| CCc1ccc(-c2ncn(CC3(F)CCN(C)CC3)c2-c2ccnc3[nH]ccc23)nc1 | -1.47 °C | 0.58 °C |
| CN(C)c1ncc2cc(-c3ccc(-c4ncccc4F)cc3Cl)c(=O)n(C[C@H]3OC[C@H](N)CO3)c2n1 | -1.55 °C | -0.14 °C |
| CCC(F)(F)c1cc(N2CCC(S(C)(=O)=O)CC2)nc2sc(C(N)=O)c(N)c12 | -2.52 °C and -1.37 °C and -0.65 °C | 0.83 °C and 0.75 °C and 1.17 °C |
| Cc1cc(Cl)ccc1S(=O)(=O)NC[C@H]1C2CCC(CC2)[C@@H]1/C=C\CCCC(=O)O | -2.88 °C | 0.12 °C |
| C1=Cc2ccccc2C(=C2CCN(CCCCc3nnn[nH]3)CC2)c2ccccc21 | -1.48 °C | 0.36 °C |
| OC(c1ccc(-c2ccc(CN3CCN(Cc4ccncc4)CC3)cc2)c(F)c1)(C(F)(F)F)C(F)(F)F | -2.07 °C | 0.64 °C |

The next lines start with the values.

| ΔTm [1] | ΔTm [2] | Structure (SMILES) |
| --- | --- | --- |
| -0.66 °C | 3.97 °C | CNC(=O)c1ccc2c(c1)NC(=O)/C2=C(\Nc1ccc(CN2CCCCC2)cc1)c1ccccc1 |
| -1.31 °C | 0.98 °C | N#CN1CC[C@@H](C(=O)Nc2nc3c(s2)CN(C(=O)CN=[N+]=[N-])CC3)C1 |
| -0.11 °C | 0.38 °C | COc1cc2ncnc(N[C@H](C)c3ccccc3)c2cc1OC1CCN(S(C)(=O)=O)CC1 |
| -2.88 °C | 0.47 °C | O=C(O)CCCCCC[C@@H]1C(=O)NC(=O)N1CCC(O)C1CCCCC1 (stereo not given in full) |
| -1.91 °C | 0.62 °C | CS(=O)(=O)NCC[C@H](NC(=O)c1cncc2c1cnn2-c1ccc(F)cc1)c1ccnc(S(C)(=O)=O)c1 |
| -1.64 °C | 0.43 °C | CCS(=O)(=O)c1cc2cc(C[C@](O)(CC(C)(C)c3ccc(F)cc3C(N)=O)C(F)(F)F)[nH]c2cn1 |
| -2.35 °C | 0.47 °C | Cn1nccc1-c1ccc(Sc2cccc(C3(C(N)=O)CCOCC3)c2)cc1 |
| -1.49 °C | 1.38 °C | CN(C(=O)c1cnn2cccnc12)c1cc2c(cc1N1CCOCC1)C(=O)N(C[C@@H](F)C(C)(C)O)C2 |
| -2.51 °C | 0.46 °C | CN1CCN(C(=O)c2ccc(N(C)c3ncc(C(F)(F)F)c(N[C@@H]4CCC[C@@H]4C(N)=O)n3)cc2)CC1 |
| -1.27 °C | 0.47 °C | Cc1ccc(NC(=O)c2ccc3c(c2)OCCO3)cc1NC(=O)c1ccc2nc(OCCN3CCCC3)ccc2c1 |
| -1.36 °C | 0.76 °C | Cc1ccccc1Oc1cc(-n2c(=O)cc(C(F)(F)F)[nH]c2=O)c2ccccc2c1Cl |
| -2.25 °C | 0.67 °C | Fc1ccc(-c2c3cccc(C(F)(F)F)c3nn2Cc2ccc(F)cc2Cl)cc1 |
| -2.41 °C | 0.5 °C | O=C(Nc1ccc(N2CCC(C(=O)N3CCOCC3)CC2)cc1)c1cnc(Oc2ccccc2)nc1 |
| -1.04 °C | 0.54 °C | Cc1n[nH]c2ncc(C(=O)N3CCC[C@H]3c3ccc(Cl)cc3)cc12 |
| -1.77 °C | 1.43 °C | CN(C)CCCNc1ccnc(Nc2cccc(Cl)c2)n1 |
| -2.95 °C | 0.52 °C | c1ccc(C(OC2CCN(CCCc3nnn[nH]3)CC2)c2ccccc2)cc1 |
| -0.77 °C | 0.74 °C | O=C1COc2cc(C(=O)N(Cc3ccc(C(=O)Nc4ccncn4)cc3)C3CC3)ccc2N1 |
| -2 °C | 0.46 °C | N=C(N)NCCC[C@@H](NC(=O)C(c1ccccc1)c1ccccc1)C(=O)NCc1ccc(CNC(N)=O)cc1 |
| -1.75 °C | 0.75 °C | CC[C@H](NC(=O)[C@H](C)NC)C(=O)N1C[C@@H](O)C[C@H]1Cc1c(-c2[nH]c3cc(F)ccc3c2C[C@@H]2C[C@H](O)CN2C(=O)[C@H](CC)NC(=O)[C@H](C)NC)[nH]c2cc(F)ccc12 |
| -1.74 °C | 1.06 °C | Cn1nc(-c2ccc(C(N)=O)cc2)c2ccccc2c1=O |
| -0.81 °C | 1.19 °C | CN1CC(=O)N(C)c2cnc(Nc3ccc(NC(=O)Nc4cccc(C(=O)O)c4)cc3)nc21 |
| -0.27 °C | 1.26 °C | COc1cc(Nc2cnc(C#N)c(O[C@H](C)CN(C)C)n2)ncc1-c1cnn(C)c1 |
| -0.55 °C | 0.95 °C | COc1cc2c(NC3CCN(C(C)C)CC3)nc(C3CCCCC3)nc2cc1OCCCN1CCCC1 |
| -0.35 °C | 0.29 °C | CC(C)(C)c1cnc(CSc2cnc(NC(=O)C3CCN(CC(=O)NCCOCCOCCOCCNc4cccc5c4C(=O)N(C4CCC(=O)NC4=O)C5=O)CC3)s2)o1 (stereo not given) |
| -1.95 °C | 0.45 °C | CCn1c(=O)c2c(C)c(C(=O)N3CCC(O)CC3)sc2n(CCC(F)(F)F)c1=O |
| -1.08 °C | 0.81 °C | CC1CN(CC(=O)N2CC(C)(C)c3nc(CO)c(Cc4ccc(F)cc4)cc32)C(CN2CCOCC2C)CN1 (stereo not given) |
| -1.44 °C | 0.39 °C | CC(=O)c1ccc2c(c1)/C(=C(/NC1CCN(C)CC1)c1ccc3c(c1)OCO3)C(=O)N2 |
| -2.33 °C | 0.72 °C | CC(C)(C)c1cc(NC(=O)c2csc(Nc3ccccn3)n2)no1 |
